Assay results reported in patent US20260041670A1, “DRUGS FOR PREVENTING AND/OR TREATING ALZHEIMER'S DISEASE” (SHENZHEN UNIVERSITY OF ADVANCED TECHNOLOGY, priority 2023, published 2026).
Converted amounts (≈) assume the structure as drawn. Like-named read-outs stand apart in the source and are kept apart here.

Legend:
[1] = cited from earlier work
TrkB = target: T1, TrkB (Homo sapiens, UniProt Q16620); assay: Pro-survival MTT assay after staurosporine-induced apoptosis in BR6 and T48 cells; assay type: cell-based; settings: STS 100 nM, 24 h, in words, relative to CF3CN
T1 construct: expressed in transfected cells; host or cells: human SH-SY5Y cells (BR6/Br6) and T48 cells
T1 sequence (Q16620 32-822, species assumed): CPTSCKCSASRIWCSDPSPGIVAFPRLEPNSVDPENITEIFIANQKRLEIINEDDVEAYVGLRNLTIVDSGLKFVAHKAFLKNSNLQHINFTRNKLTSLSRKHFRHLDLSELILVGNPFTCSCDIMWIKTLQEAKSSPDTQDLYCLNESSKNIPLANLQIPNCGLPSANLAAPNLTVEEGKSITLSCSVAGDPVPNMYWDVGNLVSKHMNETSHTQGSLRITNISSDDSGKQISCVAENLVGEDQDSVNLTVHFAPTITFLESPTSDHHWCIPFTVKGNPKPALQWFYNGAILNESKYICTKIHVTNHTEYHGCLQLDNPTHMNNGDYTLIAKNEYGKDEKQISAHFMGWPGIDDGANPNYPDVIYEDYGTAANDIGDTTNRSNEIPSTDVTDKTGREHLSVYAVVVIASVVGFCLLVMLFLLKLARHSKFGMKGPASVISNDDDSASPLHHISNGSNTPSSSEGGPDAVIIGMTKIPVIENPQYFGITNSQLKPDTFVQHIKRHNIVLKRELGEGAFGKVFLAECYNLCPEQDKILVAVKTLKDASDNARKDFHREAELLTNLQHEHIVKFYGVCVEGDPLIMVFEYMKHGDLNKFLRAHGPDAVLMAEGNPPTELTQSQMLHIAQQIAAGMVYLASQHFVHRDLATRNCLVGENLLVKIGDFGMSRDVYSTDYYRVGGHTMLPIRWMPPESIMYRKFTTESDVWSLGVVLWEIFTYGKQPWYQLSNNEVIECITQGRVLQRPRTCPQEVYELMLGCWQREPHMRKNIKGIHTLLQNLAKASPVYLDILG
Method: FIG. 1b illustrates EC50 values of CF3CN and derivatives thereof. BR6 and T48 cells are treated with staurosporine (STS) (100 nM) and TrkB agonists. CF3CN and compounds #1-4 are added in a dose-dependent manner at concentrations of 0, 5, 10, 50, 100, 500, and 1,000 nM. After 24 h, an MTT assay is performed, and EC50 values are calculated using Prism software (n=3; data are represented by mean±standard deviation (SD)).
The pro-survival effects of four derivatives were quantitatively analyzed in human SH-SY5Y cells and T48 cells stably transfected with the TrkB. […] As PLCγ1 bound with a p-Y816 residue on the TrkB receptor and was subsequently tyrosine-phosphorylated by active TrkB, a tyrosine phosphorylation signal was also monitored in this example (FIG. 1c).

Aβ42 = assay: ELISA of Aβ42 in brain tissues; assay type: in vivo; settings: 3×Tg mice, gavage 3 months
Method: FIG. 9i illustrates quantitative analysis of Aβ42 in brain tissues by an enzyme-linked immunosorbent assay (ELISA) (n=3, one-way ANOVA) (data are represented by mean±SD; […], ***p<0.005, ****p≤0.0001).
(§1) To investigate whether long-term chronic treatment with #2-NP alleviates cognitive deficits in 3×Tg AD model mice, mice were administered via gavage with #2 at 3 mg/kg, #2-NP at 3 mg/kg, and #2-NP at 10 mg/kg. […] The recognition index was increased by #2-NP in a dose-dependent manner (FIGS. 9a and b). […] Additionally, quantitative analysis of Aβ PET signals was performed using the specific ligand [18F] […] Collectively, #2-NP decreases cerebral Aβ deposition, reduces brain atrophy, and ameliorates cognitive deficits in 3×Tg mice.

Solubility (pH 7.4; PBS) = assay type: physicochemical
3×Tg mice [2] = assay: MRI cerebral cortex volume; assay type: in vivo; settings: gavage 3 months
Method: FIG. 9c illustrates representative T2-weighted magnetic resonance imaging (MRI) scanning images of 3×Tg mice, with cortical regions of interest (ROI) marked by red lines.
FIG. 9d illustrates a quantified cerebral cortex volume of ROI (n=3, one-way ANOVA).
as §1

3×Tg mice [3] = assay: Novel object recognition (NOR) test after 3 months treatment; assay type: in vivo; settings: gavage 3 months, #2 3 mg/kg, #2-NP 3 and 10 mg/kg
Method: FIG. 9a illustrates representative movement trajectories in a novel object recognition (NOR) test for 3×Tg mice from a Vehicle group, a #2 3 mg/kg group, a #2-NP 3 mg/kg group, and a #2-NP 10 mg/kg group.
FIG. 9b illustrates statistical analysis of recognition indexes of different groups (n=6, one-way ANOVA).
as §1

[4] = Plasma protein binding (human); assay type: in vitro ADME; settings: plasma, read-out: Plasma Protein Binding Fu, plasma
p-TrkB Y816 = assay: Immunofluorescent staining of p-TrkB in brain sections; assay type: in vivo; settings: 3×Tg mice, IF staining
Source text: FIG. 11a illustrates immunofluorescent (IF) staining of p-TrkB and microtubule-associated protein 2 (MAP2) in brain tissues of 3×Tg mice, with a scale bar=50 μm.
FIG. 11e illustrates quantification of p-TrkB intensities in the hippocampus (n=6, one-way ANOVA) (data are represented by mean±SD; ns represents no statistically significant difference, *p<0.05, **p<0.01, ***p<0.001).
To further analyze the therapeutic effects of #2-NP against AD pathology, immunofluorescent (IF) staining of p-TrkB was performed on brain sections from drug-treated 3×Tg mice. […] Consequently, p-AEP IF signals were closely correlated with the upstream p-TrkB activity (FIGS. 11b & f). Simultaneously, active AEP IF staining was inversely coupled with the p-AEP activity, thereby leading to a progressive decline in APP C585 levels. Consistent with these findings, Tau N368 signals and AT8 IF intensity were closely correlated with each other (FIGS. 7C & D). Quantitative analysis of the fluorescence intensity confirmed these observations (FIGS. 11g-j).

Permeability Caco-2 = assay type: in vitro ADME; settings: human, Caco-2
[5] = Stability in microsomes (human); assay type: in vitro ADME; settings: for microsomal CLint / half-life: liver microsomes; for microsomal CLint: read-out: Stability-Microsomes CL; for half-life: read-out: Stability-Microsomes T1/2
[6] = Stability in plasma (mouse); assay type: in vitro ADME; settings: for half-life: plasma, read-out: Stability-Plasma T1/2
hERG = hERG (Homo sapiens, UniProt Q12809); assay: hERG inhibition
Chain of hERG (Q12809 whole entry): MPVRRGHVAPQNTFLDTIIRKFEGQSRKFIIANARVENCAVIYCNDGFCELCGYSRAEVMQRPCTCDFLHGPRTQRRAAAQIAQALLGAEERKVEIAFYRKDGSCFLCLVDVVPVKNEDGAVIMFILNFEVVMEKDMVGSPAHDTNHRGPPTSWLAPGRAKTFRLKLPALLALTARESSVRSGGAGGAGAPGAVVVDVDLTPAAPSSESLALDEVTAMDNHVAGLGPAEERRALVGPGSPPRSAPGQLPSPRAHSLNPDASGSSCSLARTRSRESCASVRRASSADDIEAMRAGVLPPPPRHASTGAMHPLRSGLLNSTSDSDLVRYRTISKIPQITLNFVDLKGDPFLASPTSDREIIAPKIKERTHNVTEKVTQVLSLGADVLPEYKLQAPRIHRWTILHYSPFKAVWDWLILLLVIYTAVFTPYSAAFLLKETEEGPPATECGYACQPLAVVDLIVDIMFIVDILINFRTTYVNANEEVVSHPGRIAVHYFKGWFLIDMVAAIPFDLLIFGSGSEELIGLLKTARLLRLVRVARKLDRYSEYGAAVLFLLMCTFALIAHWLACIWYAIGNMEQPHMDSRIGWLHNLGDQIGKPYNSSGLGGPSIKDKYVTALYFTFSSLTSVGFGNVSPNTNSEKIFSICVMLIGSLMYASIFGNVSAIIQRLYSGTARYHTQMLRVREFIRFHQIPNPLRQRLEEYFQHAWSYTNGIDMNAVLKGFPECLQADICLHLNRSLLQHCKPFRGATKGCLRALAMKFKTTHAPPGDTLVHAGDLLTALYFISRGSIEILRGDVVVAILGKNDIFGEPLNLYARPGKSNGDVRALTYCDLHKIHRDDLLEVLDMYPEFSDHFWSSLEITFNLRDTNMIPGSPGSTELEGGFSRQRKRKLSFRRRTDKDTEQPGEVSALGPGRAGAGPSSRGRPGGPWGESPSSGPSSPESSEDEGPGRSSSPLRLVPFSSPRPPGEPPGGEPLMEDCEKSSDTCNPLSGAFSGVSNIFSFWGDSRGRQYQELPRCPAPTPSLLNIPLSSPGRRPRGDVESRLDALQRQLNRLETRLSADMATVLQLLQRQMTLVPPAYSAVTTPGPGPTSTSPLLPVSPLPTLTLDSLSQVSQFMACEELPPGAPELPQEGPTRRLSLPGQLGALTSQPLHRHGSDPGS

[7] = Stability in hepatocytes (mouse); assay type: in vitro ADME; settings: for hepatocyte CLint / half-life: hepatocytes; for hepatocyte CLint: read-out: Stability-Hepatocytes CL; for half-life: read-out: Stability-Hepatocytes T1/2
Permeability PAMPA-BBB = assay type: in vitro ADME; settings: for Papp: PAMPA, read-out: Permeability-PAMPA-BBB Pe
Aβ = assay: IHC staining of Aβ in brain sections; assay type: in vivo; settings: 3×Tg mice, gavage 3 months
Method: FIG. 9e illustrates immunohistochemical (IHC) staining of Aβ in brain sections of 3×Tg mice, with a scale bar=50 μm.
FIG. 9f illustrates a quantitative diagram of FIG. 9e (n=6, one-way ANOVA).
as §1

[8] = Stability in microsomes (mouse); assay type: in vitro ADME
[9] = Plasma protein binding (mouse); assay type: in vitro ADME; settings: plasma, read-out: Plasma Protein Binding Fu, plasma
[10] = ICR, mouse, in vivo
Method: (§2) FIG. 6b illustrates plasma concentrations following administration of #2 or #2-NP. ICR mice are divided into four groups, which are administered with #2 at 2 mg/kg (intravenous injection, IV), #2 at 5 mg/kg (oral administration, PO), #2-NP at 5 mg/kg (PO), and #2-NP at 10 mg/kg (PO). Blood samples are collected from all three mice of each group at corresponding time points, and concentrations of #2 are quantitatively analyzed by a liquid chromatography-tandem mass spectrometry (LC-MS/MS). Cmax: maximum plasma concentration; Tmax: time to maximum concentration; T½: terminal elimination half-life; AUC: area under curves; MRT: mean residence time; CL: clearance; and F: relative oral bioavailability.
(§3) FIG. 13a illustrates plasma concentrations and PK parameters of #2 quantitatively analyzed by LC-MS/MS after IG administration of #2, #2-NP, and #2-LIP at 5 mg/kg, as well as IN administration of #2 and #2-LIP at 5 mg/kg (n=3; data are represented by mean±SD).
(§4) FIG. 13b illustrates brain concentrations and PK parameters of #2 quantitatively analyzed by LC-MS/MS after IG administration of #2, #2-NP, and #2-LIP at 5 mg/kg, as well as IN administration of #2 and #2-LIP at 5 mg/kg (n=3; data are represented by mean±SD).
(§5) To investigate the in vivo PK profile of #2-NP, lyophilized #2-NP powder was redissolved. […] For quantitative comparison of the effects of the nanoparticle system in delivering #2 to the blood circulation system and brain tissues, PK studies were performed in 2-month-old ICR mice.

in vivo = settings: ICR, mouse
Method: as §2, §3, §4, §5

[11] = Stability in hepatocytes (human); assay type: in vitro ADME; settings: for hepatocyte CLint / half-life: hepatocytes; for hepatocyte CLint: read-out: Stability-Hepatocytes CL; for half-life: read-out: Stability-Hepatocytes T1/2
[12] = Stability in plasma (human); assay type: in vitro ADME; settings: for half-life: plasma, read-out: Stability-Plasma T1/2
plasma proteins [13] = assay: Plasma protein binding (human); assay type: in vitro ADME
Caco-2 cells = assay: Permeability Caco-2; assay type: in vitro ADME
[14] = In vivo PK (plasma and brain, LC-MS/MS) in ICR mice; settings: Table 1; dose and route not stated there
plasma proteins [15] = assay: Plasma protein binding (mouse); assay type: in vitro ADME

For `O=c1cc(-c2ccccc2)oc2c(O)c(O)ccc12` [7,8-DHF, 7,8-dihydroxyflavone], the oral bioavailability ([1]; earlier work on 7,8-DHF) is given as “approximately 4.6%”.

With `NCc1ccc(-c2cc(=O)c3ccc4nc(C(F)(F)F)[nH]c4c3o2)cc1` [#1] the “pro-survival EC50” value (TrkB) was “excessively high”.

With `CNCc1ccc(-c2cc(=O)c3ccc4nc(C(F)(F)F)[nH]c4c3o2)cc1` [#2] the Aβ42 content (Aβ42) was “significantly decreased”, the solubility (Solubility (pH 7.4; PBS); aqueous buffer) was 50 µM (≈ 18.7 µg/mL) and the “cerebral cortex volume compared to the Vehicle group” value (3×Tg mice [2]) was “elevation trend without statistical significance”. For the same compound, the “cognitive function in NOR test (recognition index)” value (3×Tg mice [3]) was “failed to improve”, the fraction unbound [4] was 0.046 and the “p-TrkB Y816 in the hippocampus” value (p-TrkB Y816) was “significant activation”. It also gave an efflux ratio (Permeability Caco-2) of 193, a Papp A→B (Permeability Caco-2; a-b) of 0.0175 ×10⁻⁶ cm/s and a Papp B→A (Permeability Caco-2) of 13.9 ×10⁻⁶ cm/s. For the same compound, the microsomal CLint [5] was 2.32 µL/min/mg, the half-life [5] was 9.97 h and the half-life [6] was > 8 h. The IC50 (hERG) was > 10 µM, the hepatocyte CLint [7] was < 3 µL/min/1e6 cells and the half-life [7] was > 8 h. For the same compound, the Papp (Permeability PAMPA-BBB) was 0.135 ×10⁻⁶ cm/s, the “Aβ aggregation in the hippocampus” value (Aβ) was “significantly reduced” and the microsomal CLint ([8]; liver microsomes, read-out: Stability-Microsomes CL) was 10.5 µL/min/mg. The half-life ([8]; liver microsomes, read-out: Stability-Microsomes T1/2) was 2.22 h, the fraction unbound [9] was 0.012 and the “brain AUC” value ([10]; 5 mg/kg) was 78.34 ng·h/mL. For the same compound, the “plasma Cmax, IN versus PO administration” value ([10]; 5 mg/kg) was “approximately 10 fold”, the “clearance (CL)” value ([10]; inhaled or intranasal, 5 mg/kg) was 43.95 mL/min/kg and the brain maximum concentration ([10]; iv) was 18.47 ng/g. The “brain AUC” value ([10]; iv, 2 mg/kg) was 84.26 ng·h/mL, the “brain Cmax” value ([10]; iv, 2 mg/kg) was 164.38 ng/g and the brain maximum concentration ([10]; po) was 27.663 ng/g. For the same compound, the “brain AUC” value ([10]; po, 5 mg/kg) was 35.75 ng·h/mL, the “brain Cmax” value ([10]; po, 5 mg/kg) was 18.47 ng/g and the clearance ([10]; po, 5 mg/kg) was 223 mL/min/kg. The Kp (in vivo) was ~0.1, the Cmax (in vivo; 5 mg/kg, maximum plasma concentration (Cmax)) was 947 ng/mL and the AUC (in vivo; inhaled or intranasal, 5 mg/kg) was 1900 ng·h/mL. The MRT (in vivo; inhaled or intranasal, 5 mg/kg) was 2.11 h, the bioavailability (in vivo; inhaled or intranasal, 5 mg/kg) was 34.3% and the half-life (in vivo; inhaled or intranasal, 5 mg/kg, elimination half-life) was 1.54 h. For the same compound, the Cmax (in vivo; inhaled or intranasal, 5 mg/kg, maximum plasma concentration (Cmax)) was 947 ng/mL, the AUC (in vivo; iv, 2 mg/kg) was 2320 ng·h/mL and the half-life (in vivo; iv, 2 mg/kg, brain t1/2) was 1.41 h. The half-life (in vivo; iv, 2 mg/kg, plasma half-life (t½)) was 0.84 h, the half-life (in vivo; iv, half-life in the brain) was 3.49 h and the AUC (in vivo; po, 5 mg/kg) was 405 ng·h/mL. It also gave a Cmax (in vivo; po, 5 mg/kg, Cmax) of 90.8 ng/mL, a half-life (in vivo; po, 5 mg/kg, brain t1/2) of 3.49 h and a half-life (in vivo; po, 5 mg/kg, half-life in the brain) of 2.39 h. It also gave a Cmax (in vivo; po, 5 mg/kg, maximum plasma concentration (Cmax)) of 90.8 ng/mL, a half-life (in vivo; po, 5 mg/kg, plasma half-life (t½)) of ~4.09 h and a half-life (in vivo; t1/2) of 4.09 ± 2.65 h. The hepatocyte CLint [11] was < 3 µL/min/1e6 cells, the half-life [11] was > 8 h and the “pro-survival EC50” value (TrkB) was “comparable”. For the same compound, the half-life [12] was > 8 h.

With `CNC(=O)c1ccc(-c2cc(=O)c3ccc4nc(C(F)(F)F)[nH]c4c3o2)cc1` [#3] the solubility (Solubility (pH 7.4; PBS); aqueous buffer) was > 100 µM, the fraction unbound [4] was 0.002 and the Papp B→A (Permeability Caco-2) was 28.7 ×10⁻⁶ cm/s. For the same compound, the microsomal CLint [5] was 1.03 µL/min/mg, the half-life [5] was 22.5 h and the half-life [6] was > 8 h. For the same compound, the IC50 (hERG) was > 10 µM, the hepatocyte CLint [7] was < 3 µL/min/1e6 cells and the half-life [7] was > 8 h. For the same compound, the Papp (Permeability PAMPA-BBB) was 0.815 ×10⁻⁶ cm/s, the fraction unbound [9] was 0.005 and the hepatocyte CLint [11] was < 3 µL/min/1e6 cells. The half-life [11] was > 8 h and the half-life [12] was > 8 h.

For `CN(C)C(=O)c1ccc(-c2cc(=O)c3ccc4nc(C(F)(F)F)[nH]c4c3o2)cc1` [#4], the solubility (Solubility (pH 7.4; PBS); aqueous buffer) was > 100 µM, the fraction unbound [4] was 0.004 and the Papp B→A (Permeability Caco-2) was 45.9 ×10⁻⁶ cm/s. For the same compound, the half-life [6] was > 8 h, the IC50 (hERG) was > 10 µM and the hepatocyte CLint [7] was < 3 µL/min/1e6 cells. The half-life [7] was > 8 h, the Papp (Permeability PAMPA-BBB) was 1.27 ×10⁻⁶ cm/s and the fraction unbound [9] was 0.009. The hepatocyte CLint [11] was < 3 µL/min/1e6 cells, the half-life [11] was > 8 h and the “pro-survival EC50” value (TrkB) was “comparable”. For the same compound, the half-life [12] was > 8 h.

In the case of `N#Cc1ccc(-c2cc(=O)c3ccc4[nH]c(C(F)(F)F)nc4c3o2)cc1` [CF3CN, reference compound], the solubility (Solubility (pH 7.4; PBS)) is given as >200 µM, the “Plasma Protein Binding Fu, plasma” value (plasma proteins [13]) is given as 0.101% (human); and the “B/P Ratio (Brain/Plasma Ratio)” value ([1]; earlier work on CF3CN) is given as “approximately 1%”. The “Caco-2 Efflux Ratio” value (Caco-2 cells) was 3.6, the “Permeability-Caco-2 Papp (b-a)” value (Caco-2 cells; b-a) was 42.6 (b-a) 10 cm/s and the “Stability-Microsomes CL” value [5] was <12.8(human); μL/min/mg. For the same compound, the “Stability-Microsomes T1/2” value [5] was >180(human); min, the “Stability-Plasma T1/2” value [6] was >480 (mouse); min and the IC50 (hERG) was > 25 µM. The “Stability-Hepatocytes T1/2” value [7] was >480 (mouse); min, the t1/2 [14] was 2.994 ± 1.538 h and the “Permeability-PAMPA-BBB Pe” value (Permeability PAMPA-BBB) was 3.09 10 cm/s. The “Stability-Microsomes CL” value [8] was <12.8(mouse) μL/min/mg, the “Stability-Microsomes T1/2” value [8] was >180(mouse) min and the “Plasma Protein Binding Fu, plasma” value (plasma proteins [15]) was 3.55% (mouse). The “Stability-Hepatocytes T1/2” value [11] was >480 (human) min and the “Stability-Plasma T1/2” value [12] was >480 (human) min.
